The results in this text go back to patent publication US20130123282A1, “SOLID STATE FORMS OF LINAGLIPTIN” (priority 2011, published 2013).

Common to all, as to type: physicochemical
The nature of data set [1]: Polymorphic stability on storage under different relative humidity levels (XRD). From the text: In addition to the properties mentioned above, Form XXII is particularly important as it can be obtained and exist at ambient conditions as single, pure phase. […] is also particularly advantageous, for example, in being non-hygroscopic and polymorphic stable under different relative humidity levels.
(§1) In addition to the properties mentioned above, Form XXII is particularly important as it can be obtained and exist at ambient conditions as single, pure phase. […] Form XXII is also non-hygroscopic and polymorphic stable under different relative humidity levels.
The XRD analyses were performed on ARL (SCINTAG) powder X-Ray diffractometer model X′TRA equipped with a solid state detector. Copper radiation of 1.5418 Å was used. Scanning parameters: range: 2-40 degrees two-theta; scan mode: continuous scan; step size: 0.05°, and a rate of 3 deg/min. The position of the silicon (111) peak was corrected to be 28.45 degrees two theta. The positions of the XRD peaks for the Linagliptin forms were corrected respectively. […]

Data set [2] in a line: Hygroscopicity according to Ph.Eur. chapter 5.11. To be noted: non-hygroscopic = less than 0.2% (w/w) absorption of water, Ph.Eur. 5.11. From the text: As used herein, and unless stated otherwise, the term “non-hygroscopic” in relation to crystalline Linagliptin refers to less than 0.2% (w/w) absorption of water, for example atmospheric water, by the crystalline Linagliptin, as determined according to Ph.Eur. chapter 5.11 (“Hygroscopicity”)

A short description of data set [3]: Polymorphic stability when slurried in solvents. To be noted: slurrying in different solvents, such as acetonitrile and ethanol.
Text: as §1

In the case of `CC#CCn1c(N2CCC[C@@H](N)C2)nc2c1c(=O)n(Cc1nc(C)c3ccccc3n1)c(=O)n2C` [Form X, Linagliptin], in data set [1] (exposed to 100% relative humidity for 7 days), the “solid form found by XRD after exposure to humidity” value was “Linagliptin form XII”. The “polymorphic transformation on storage” value in data set [1] (stored for 7 days at room temperature under 0-80% relative humidity) is recorded as “no polymorphic transformation is observed”.
With `CC#CCn1c(N2CCC[C@@H](N)C2)nc2c1c(=O)n(Cc1nc(C)c3ccccc3n1)c(=O)n2C` [Form XXII, Linagliptin], the “polymorphic transformation on storage” value in data set [1] (stored for 7 days at room temperature under 0-100% relative humidity) is on record as “no polymorphic transformation is observed”. Further, in data set [2], the hygroscopicity result was “non-hygroscopic”. For the same compound, in data set [3], the “polymorphic transformation on slurrying” value is “do not transform to other forms”.
